How the values were obtained:
293 cells [1] = assay: Lipid peroxidation assay (MDA and 4-HNE) in 293 cells; type: cell-based, human
Method: FIG. 6: Cells exposed to AA show increased lipid peroxidation; apoptosis is blocked by antioxidants and Bcl-2. (A) The level of lipid oxidation products. The 293 cells were treated with AA at the indicated concentrations for 48 hr. The data presented are from one experiment that is representative of two independent experiments. […] Antioxidants were applied to 293 cells at the indicated concentration for 1 hr, and then AA (200 μM) was added. Apoptosis was determined after 44 hr and is shown relative to the level in control cells. […] Cells were transfected with the empty vector (Ctl) or with a cDNA encoding Bcl-2 and then were exposed to AA (300 μM). The level of apoptosis was determined after 44 hr. The values shown indicate the apoptosis level relative to control cells, and represent the means of triplicate determinations (P<0.05). The expression of Bcl-2 was detected by Western blotting. (D) The level of Bcl-2 expression in the stable cells. The stably transfected cells were induced, or not, with ponasterone for 24 or 48 hr. Cell lysates were blotted with an antibody to Bcl-2. Normalization was performed with an anti-β-actin antibody.
Lipid peroxidation assay. Cells were plated and treated with AA for 48 hr. […] The cellular malondialdehyde (MDA) and 4-hydroxynonenal (4-HNE) levels were determined with the lipid peroxidation assay kit (Calbiochem).

293 cells [2] = assay: Cell survival (crystal violet staining) in 293 cells; type: cell-based, human; settings: 293 cells, increasing exogenous AA concentration, 44 hr
Method: (§1) FIG. 3: Arachidonic acid induces apoptosis via activation of caspase 3. (A) Determination of cell survival. AA was added to 293 cells at the indicated concentrations and the surviving fraction of cells was determined after 44 hr. The values shown are relative to the viability of cells that were not exposed to AA. (B) Increased apoptosis in cells exposed to AA. Cells were treated with AA (300 μM) or palmitic acid (300 μM) under the same conditions as in A, and then apoptosis was detected with an ELISA. The mean values from triplicate determinations are shown. […] The 293 cells were treated with AA (300 μM; +AA) or vehicle alone (−AA) for 44 hr. The nuclei were stained with DAPI, and DNA strand breaks in individual cells were detected with a fluorescent TUNEL assay. The upper panels are the same field of cells (−AA) photographed under UV (left panels) and FITC filters (right panels). The lower panels illustrate apoptotic cells (+AA). The magnification is 80×. (D) Immunostaining with an anti-active caspase 3 antibody. Upper panels, control cells (−AA); lower panels, cells exposed to 300 μM AA. Left panels, DAPI staining; right panels, immunostaining with an antibody selective for active caspase 3. The magnification is 100×. […] The 293 cells were preincubated with caspase inhibitors (including DMQD, a caspase 3 inhibitor, and YVAD, a caspase 1 and 4 inhibitor (Peptide Institute)) for 1 hr at the indicated concentrations, AA (300 μM) was added, and apoptosis was determined 44 hr later. The values represent the means from triplicate determinations.
(§2) Cell survival. Cell viability was determined with the crystal violet staining (See M. Hayakawa et al., 268 J. Biol. Chem. 11290-11295 (1993).

293 cells [3] = assay: Apoptosis by Cell Death Detection ELISA in 293 cells; type: cell-based, human; settings: 44 hr
Method: as §1
(§3) Cell Death Detection ELISA. Cells were plated on 96 well-plates at 1×10^4 cells per well. AA was applied and apoptotic death was determined after 44 hr with the Cell Death Detection ELISA (Boehringer Mannheim).

COX-2 stable 293 cells = assay: Apoptosis in stably transfected 293 cells with inducible COX-2 over-expression; type: cell-based, human
Method: (A) Conditional expression level of FACL4 and COX-2 in stably transfected lines. Cells were treated with (+) or without (−) ponasterone (1 μg/ml) for 48 hr, and Western blotting was carried out with anti-FACL4 and anti-COX-2 antibodies, respectively. The loading was normalized with an anti-β actin antibody (ICN Biomedicals). […] The 293 cells stably transfected with an empty control vector (Ctl), FACL4 cDNA, COX-2 cDNA, and both FACL4 and COX-2 cDNAs were uninduced (−Pon) or induced for over-expression (+Pon) as in A. AA (300 μM) was added after 24 hr of induction and apoptosis was determined 44 hr later. […] The plot is a comparison of the relative apoptosis levels among the stable lines and is representative of three independent experiments. The values shown are the averages of triplicate determinations. […] Cells were uninduced (−Pon) or induced for over-expression as above. […] COX inhibitors were administered 6 hr later as indicated. AA (300 μM) was then added after 2 hr and apoptosis was determined 44 hr later. The plot is prepared as in B, and is a representative result from three independent experiments, in which triplicates were performed. Wt=wild-type, Mut=mutant, Met=50 μM 6-methoxy-2-naphthyl acetic acid, Indo=10 μM indomethacin. […] The COX-2, FACL4/COX-2 stable and control cells carrying an empty vector were induced for 48 hr, washed and incubated with 20 μM AA at 37° C. for 30 min. The amount of PGE2 synthesized was determined by ELISA. […] (E) The levels of free AA in the stable lines. The [^3H]
as §3
Stable cell lines. The ecdysone inducible system (Invitrogen) was used to construct stable lines over-expressing human FACL4, COX-2, COX-2 mutant, and both FACL4 and COX-2. […] The cDNAs were cloned into pIND(SP1) (Neomycin^r). The cDNA constructs, or the empty vector pIND(SP1) were transfected into EcR293 cells, which were then selected in 400 μg/ml geneticin and 400 μg/ml zeocin. […] The double stable line was generated by stably transfecting the COX-2 stable cells with another pIND(SP1)-FACL4 cDNA construct, in which the FACL4 cDNA was cloned into a pIND(SP1) (hygromycin^r) vector. The cells were selected in 400 μg/ml geneticin, 400 μg/ml zeocin, and 50 μg/ml hygromycin B. The positive colonies were screened as described above.

caspase 3 = assay: Caspase 3-like activity in AA-treated cells; type: cell-based; settings: not shown
[4] = test system: FACL4/COX-2 double stable cells; assay: Cell survival of FACL4/COX-2 double stable cells after TNFα or A23187; type: cell-based, human; settings: TNFα 1 ng/ml or A23187 5 μM, 72 hr, n=3
Method: (§4) FIG. 5: Enzymatic “sinks” for free arachidonic acid protect against TNFα_ and calcium ionophore_mediated cell killing. (A) Determination of cell survival. The cells were induced (+Pon) or not (−Pon) for 24 hr, and TNFα (1 ng/ml) or the calcium ionophore A23187 (5 μM) was added, and the cells were incubated for another 72 hr. The surviving fraction was determined and is plotted relative to that of the same line without TNFα or A23187 treatment. Ctl denotes control cells harboring an empty vector, while FACL4/COX-2 denotes the double stable line. (B) Measurement of the free AA. The FACL4/COX-2 cells were prelabeled with [^3H] AA, induced, and stimulated with A23187 (5 μM), and [^3H] AA release was measured at the indicated time intervals. The values are from one experiment that is representative of four independent determinations.
Stable cell lines. The ecdysone inducible system (Invitrogen) was used to construct stable lines over-expressing human FACL4, COX-2, COX-2 mutant, and both FACL4 and COX-2. […] The cDNAs were cloned into pIND(SP1) (Neomycin^r). The cDNA constructs, or the empty vector pIND(SP1) were transfected into EcR293 cells, which were then selected in 400 μg/ml geneticin and 400 μg/ml zeocin. A number of single colonies were screened for over-expression of FACL4, COX-2 wild type, and COX-2 mutant by immunoblotting against anti-FACL4 (See Y. Cao et al., 467 FEBS Lett. 263-267 (2000)), and anti-COX-2 antibodies (a gift from Dr. Jacques Maclouf), and by measurement of the CoA ligase activity for FACL4 (See D. B. Wilson et al., 257 J. Biol. Chem. 3510-3515 (1992)), or the PGE2 secretion for COX-2 wild type (ELISA assay, Assay Design, Inc.). The double stable line was generated by stably transfecting the COX-2 stable cells with another pIND(SP1)-FACL4 cDNA construct, in which the FACL4 cDNA was cloned into a pIND(SP1) (hygromycin^r) vector. The cells were selected in 400 μg/ml geneticin, 400 μg/ml zeocin, and 50 μg/ml hygromycin B. The positive colonies were screened as described above.
as §2

FACL4/COX-2 cells = assay: [3H] arachidonic acid release after A23187 (pulse-chase); type: cell-based, human; settings: A23187 5 μM
Method: as §4
Arachidonic acid release. Cells were plated on 6 well-plates precoated with poly-L-lysine at 8×10^5 cells per well. They were then prelabeled with [^3H] AA (0.4 μCi/ml medium) (91.8 Ci/mmol, 100 μCi/ml, NEN) for 24 hr. After a wash, serum-free DMEM supplemented with 1% BSA (fatty acid free) was added. […] The AA release stimulated by A23187 was calculated by subtracting the released AA by unstimulated cells, from that by A23187-stimulated counterparts.

In the case of `CCCCC/C=C\C/C=C\C/C=C\C/C=C\CCCC(=O)O` [AA, Arachidonic acid], the “formation of lipid peroxidation products” value (293 cells [1]; 293 cells exposed to AA, 48 hr) is reported as “enhanced formation of malondialdehyde and 4-hydroxy-2(E)-nonenal”, the “cell survival, % of the control” value (293 cells [2]) is reported as 23% and the “apoptosis (mono- and oligo-nucleosomes) over the control” value (293 cells [3]; 293 cells, 300 μM) is reported as 18 fold. For the same compound, the “fold-increase in apoptosis after fatty acid treatment” value (COX-2 stable 293 cells; 200 μM) was 8.5 fold, the “reduction of fatty acid-induced apoptosis by inducing COX-2 over-expression” value (COX-2 stable 293 cells; COX-2 over-expression induced, n=3) was 36.7% and the “maximal increase in caspase 3-like activity compared to control cells” value (caspase 3) was ~4.5 fold. For the same compound, the “time of peak caspase 3-like activity” value (caspase 3) was 17 h.
With `CNc1ccc2oc(C[C@H]3O[C@@]4(CC[C@H]3C)O[C@H]([C@H](C)C(=O)c3ccc[nH]3)[C@H](C)C[C@H]4C)nc2c1C(=O)O` [A23187] the “surviving fraction, induced cells” value ([4]; FACL4/COX-2 double stable cells induced with ponasterone) was 67.8%, the “surviving fraction, uninduced cells” value ([4]; FACL4/COX-2 double stable cells without induction) was 37.8% and the “AA release to the medium in response to A23187, control cells” value (FACL4/COX-2 cells; control cells) was “released a large amount of AA”. The “AA release to the medium in response to A23187, over-expression of FACL4 and COX-2” value (FACL4/COX-2 cells; induced FACL4/COX-2 cells) was “completely abolished”.
z-DMQD-fmk was tested, and the “effect on generation of peroxidized lipids” value (293 cells [1]; AA-exposed cells, not shown) was “did not block the generation of peroxidized lipids” and the “blocking of AA-induced apoptosis by caspase inhibitor” value (293 cells [3]; 293 cells preincubated 1 hr with inhibitor, AA 300 μM) was “significantly blocked apoptosis”.
